Holding throughout (assay type): physicochemical
Series [1] in a line: Water solubility. The conditions noted are these: 25 °C. The method, then: “Water solubility” means a measure of the maximum possible concentration of a drug dissolved in water. The water temperature may be specified; in an embodiment water solubility is determined at 25 Deg. C. Units of measurement of water solubility are typically mass/volume, such as mg/ml. […] C.; preferably less than or equal to about 0.1 mg/ml at 25 Deg. […] C.

A short description of series [2]: DSC amorphous stability (recrystallization) on storage at 25 Deg C. The conditions noted are these: FIG. 3; for crystallinity: DSC. The method, then: The amorphous state of the amorphous drug core is determined by subjecting a population of nanoparticles that comprise one or more nanoparticles that comprise the recited amorphous drug core to differential scanning calorimetry (DSC). In an embodiment, a DSC method according to the invention used a Perkin-Elmer DSC-7 or a Diamond DSC calorimeter applied for the measurement of specific transition temperatures of tested samples. Thus, the glass transition (Tg), melting (Tm) and crystallization (Tc) temperatures were measured for each sample, according to the PN-EN ISO 11357-1:2002 (ISO 11357-1:1997), ISO 11357-2:1999 and ISO 11357-3:1999 standards, at the rate of temperature change of 10 Deg C./min. The instrument was calibrated using indium, tin and zinc certified reference materials (CRMs)
The amorphous state of the amorphous drug core, as measured by DSC is expressed as a weight fraction of the weight of amorphous material in the amorphous drug core to the total weight of the amorphous drug core, expressed as an average value across the population of nanoparticles being measured. For instance, if a population of nanoparticles was measured using DSC, and the amorphous state was determined to be a particular value for the population, that value would be considered the average amorphous state for each nanoparticle within the population. An inventive amorphous drug core may contain a small amount of crystalline drug.
“Amorphous stability” means a measure of how much a material changes in its structure from being amorphous to being crystalline under defined conditions and a set timeframe. […] For instance, an amorphous material that is initially 98% w/w amorphous is considered amorphously stable according to the invention if, at the end of 6 months testing at 25 degree C., the material is at least 88% w/w amorphous. The amorphous state of a material according to the invention is determined using a DSC method as detailed above and elsewhere herein.

Series [3] is described as follows: XRD amorphous stability of dried samples on storage. The following applies: storage 3 month and 1 year, nanosized sample dried by lyophilization, FIGS. 1 and 2.

Structures are written as SMILES. Some results are limits rather than exact numbers.

Usually solubility stands for how much of the substance goes into solution per volume. Read a high solubility as a readily soluble substance. Compound `O=C(NN1CCCCC1)c1nn(-c2ccc(Cl)cc2Cl)c2c1CCC/C2=C\c1ccc(F)cc1` [COMPOUND 1] gave a solubility in series [1] of no more than 0.2 ng/mL.
For `O=C(NN1CCCCC1)c1nn(-c2ccc(Cl)cc2Cl)c2c1CCC/C2=C\c1ccc(F)cc1` [bulk amorphous COMPOUND 1], the crystallinity in series [2] (4 month time point) is 0.44%; in series [2] (5 month time point), 1.39%; in series [2] (6 month time point) it was 10.54%. Moreover, the “storage time after which recrystallization was detectable by DSC” value in series [2] (storage at 25 Deg C) stood at 4 month. Also, the XRD amorphous stability result in series [3] was “XRD amorphous stability can be achieved up to 1 year”.

Values taken from patent US20080181957A1, “INCREASED AMORPHOUS STABILITY OF POORLY WATER SOLUBLE DRUGS BY NANOSIZING” (priority 2006, published 2008).
